# US20250111889A1, “DE NOVO DESIGNED MACROCYCLIC OLIGOAMIDES” (UNIVERSITY OF WASHINGTON, priority 2022, published 2025)
# Where a SMILES comes first, the peptide text is derived from it. Bridges are numbered along the chain shown (N, C = ends). [ ]: non-standard residue; d: D form. Trp(6-Cl) = N[C@@H](Cc1c[nH]c2cc(Cl)ccc12)C(=O)O; NMePhe(2,4-Me2) = CN[C@@H](Cc1ccc(C)cc1C)C(=O)O; dNMePhe(2,4-Me2) = CN[C@H](Cc1ccc(C)cc1C)C(=O)O; NMePhe(2-Me) = CN[C@@H](Cc1ccccc1C)C(=O)O; NMeNva = CCC[C@H](NC)C(=O)O
# Target: T1, MCL-1 (Homo sapiens, UniProt Q07820)
# T1 construct: GST
# Test: MCL-1 assay (HTRF, Anti-GST-Tb)
# Type: binding
# Details: 10-dose singlet, 3-fold serial dilution starting at 200 uM; HTRF signal after 60 min
# Description: MCL-1: The compounds were tested in 10-dose IC50 singlet with a 3-fold serial dilution starting at 200 uM. Compounds in DMSO were added to enzyme solution by using Acoustic Technology. Compounds were incubated with enzyme for 10 min. at room temperature. Respective compounds were then added, and the mixture incubated for another 10 min. Finally, Anti-GST-Tb was added. After 60 min incubation, the HTRF signal was measured.
# T1 sequence (Q07820 whole entry, species assumed): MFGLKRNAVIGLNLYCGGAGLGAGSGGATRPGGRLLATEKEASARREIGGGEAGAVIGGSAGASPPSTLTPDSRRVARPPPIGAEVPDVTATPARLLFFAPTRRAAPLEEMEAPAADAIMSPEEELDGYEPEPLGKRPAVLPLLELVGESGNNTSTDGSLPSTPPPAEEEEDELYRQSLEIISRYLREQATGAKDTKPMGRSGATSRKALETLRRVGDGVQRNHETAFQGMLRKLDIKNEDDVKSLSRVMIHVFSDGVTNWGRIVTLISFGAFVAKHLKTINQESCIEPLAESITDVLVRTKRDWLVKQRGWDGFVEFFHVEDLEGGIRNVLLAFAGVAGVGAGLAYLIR
row,SMILES,IC50
1,CCOCCN1CC(=O)NCc2ccccc2C(=O)N[C@@H](Cc2ccc(Cl)c(Cl)c2)C(=O)N(CCc2ccc(F)cc2)CC1=O [Compound 19],40.6 µM
2,COc1cc(CN2CC(=O)NCc3ccccc3C(=O)N[C@@H](Cc3ccc(Cl)c(Cl)c3)C(=O)N(CCc3ccc(F)cc3)CC2=O)cc(OC)c1 [Compound 16],13.5 µM
3,CN1C(=O)CN(Cc2cccc(Br)c2)C(=O)CCCCNC(=O)[C@@H](Cc2ccc(C(C)(C)C)cc2)NC(=O)[C@@H]1Cc1ccc(Cl)c(Cl)c1 [Compound 121],50.1 µM
4,Cc1ccc(C[C@@H]2NC(=O)CCCCNC(=O)CN(CCOc3c(C)cccc3C)C(=O)[C@@H](Cc3ccc(Cl)c(Cl)c3)N(C)C2=O)cc1 [Compound 119],18.9 µM
5,COc1cccc(CCN2CC(=O)N[C@@H](C(C)C)CC(=O)NCc3cccc(c3)CC(=O)N[C@@H](Cc3ccc(Cl)c(Cl)c3)C2=O)c1 [Compound 29],22.8 µM
6,COc1cccc(CCN2CC(=O)N[C@H]3CC[C@H](CC3)CC(=O)N(CCc3ccc(C(F)(F)F)cc3)CC(=O)N(Cc3ccc(Cl)c(Cl)c3)CC2=O)c1 [Compound 18],28.2 µM
7,Cc1ccccc1CN1CC(=O)N[C@H](C(C)(C)C)C(=O)NCc2cccc(c2)CC(=O)N[C@H](Cc2ccc(Cl)c(Cl)c2)CC1=O [Compound 11],4.58 µM
8,CCC(CC)[C@H]1NC(=O)CN(Cc2ccc(Cl)c(Cl)c2)C(=O)[C@H](Cc2ccc(C(C)(C)C)cc2)NC(=O)CCCCNC1=O [Compound 122],12.3 µM

# Target: T2, MDM2 (Homo sapiens, UniProt Q00987)
# T2 construct: purchased PerkinElmer AL3168C
# Test: MDM2 assay (commercial alphalisa kit, PerkinElmer AL3168C)
# Type: binding
# Details: alphalisa kit per manufacturer's instructions; quantity not given
# Description: MDM2: The assay was performed using a commercially available alphalisa assay kit from PerkinElmer (part number AL3168C) following the manufacturer's instructions.
# T2 sequence (Q00987 whole entry): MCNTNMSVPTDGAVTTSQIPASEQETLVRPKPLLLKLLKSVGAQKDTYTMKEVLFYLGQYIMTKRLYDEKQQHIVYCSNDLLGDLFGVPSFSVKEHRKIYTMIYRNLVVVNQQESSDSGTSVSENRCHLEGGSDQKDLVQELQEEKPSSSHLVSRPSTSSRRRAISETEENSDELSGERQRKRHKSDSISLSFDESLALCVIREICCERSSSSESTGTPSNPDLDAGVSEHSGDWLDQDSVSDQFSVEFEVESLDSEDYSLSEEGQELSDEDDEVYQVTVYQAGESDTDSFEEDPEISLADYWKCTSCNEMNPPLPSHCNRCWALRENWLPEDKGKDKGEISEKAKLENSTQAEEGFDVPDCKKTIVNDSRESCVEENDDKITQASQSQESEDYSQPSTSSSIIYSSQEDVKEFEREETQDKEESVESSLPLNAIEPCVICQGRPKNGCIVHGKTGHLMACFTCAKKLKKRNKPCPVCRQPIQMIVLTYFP
row,SMILES,IC50
1,"CCC[C@H]1C(=O)N[C@@H](Cc2c[nH]c3cc(Cl)ccc23)C(=O)N(C)[C@@H](Cc2ccc(C)cc2C)C(=O)N[C@H](C(N)=O)CSCC(=O)N1C [Compound 32] ({CH2CO}-[NMeNva][Trp(6-Cl)][NMePhe(2,4-Me2)]C-NH2; thioether N-4)",100 µM
2,"Cc1ccc(C[C@@H]2C(=O)N[C@@H](Cc3c[nH]c4cc(Cl)ccc34)C(=O)N(C)[C@@H](Cc3ccccc3C)C(=O)N[C@H](C(N)=O)CSCC(=O)N2C)c(C)c1 [Compound 35] ({CH2CO}-[dNMePhe(2,4-Me2)][Trp(6-Cl)][NMePhe(2-Me)]C-NH2; thioether N-4)",20 µM

# Target: T3, SARS-CoV-2 main protease (Severe acute respiratory syndrome coronavirus 2, UniProt P0DTD1)
# T3 construct: SARS-CoV-2 main protease
# Test: SARS-CoV-2 main protease assay (fluorescence time-course)
# Type: biochemical
# Details: 10-dose singlet, 3-fold serial dilution starting at 200 uM; increase in fluorescence signal
# Description: SARS-CoV-2 main protease: The compounds were tested in 10-dose IC50 singlet with a 3-fold serial dilution starting at 200 uM. The protease activities were monitored as a time-course measurement of the increase in fluorescence signal.
row,SMILES,IC50
1,O=C1C[C@H](Cc2ccc(Br)cc2)NC(=O)[C@H](Cc2cccnc2)NC(=O)[C@H](Cc2cccc(Cl)c2)NC(=O)Cc2ccccc2N1 [Compound 134],1.22 µM
2,Cc1ccccc1C[C@@H]1NC(=O)Cc2ccccc2NC(=O)C[C@H](Cc2ccc(Cl)c(Cl)c2)NC(=O)[C@H](Cc2cccnc2)NC1=O [Compound 142],1.89 µM
3,O=C1C[C@H](Cc2ccccc2Cl)NC(=O)[C@H](Cc2cccnc2)NC(=O)[C@H](Cc2cccc(C(F)(F)F)c2)NC(=O)Cc2ccccc2N1 [Compound 144],1.26 µM
4,O=C1C[C@H](Cc2ccc(F)cc2)NC(=O)[C@H](Cc2cccnc2)NC(=O)[C@H](Cc2cccc(Cl)c2)NC(=O)Cc2ccccc2N1 [Compound 141],1.84 µM
5,Cc1ccccc1C[C@@H]1NC(=O)Cc2ccccc2NC(=O)C[C@H](Cc2cc(F)c(F)cc2F)NC(=O)[C@H](Cc2cccnc2)NC1=O [Compound 140],1.53 µM
6,Cc1cccc(C[C@H]2CC(=O)Nc3ccccc3CC(=O)N[C@@H](Cc3cccc(C(F)(F)F)c3)C(=O)N[C@@H](Cc3cccnc3)C(=O)N2)c1 [Compound 138],2.14 µM
7,Cc1ccccc1C[C@@H]1NC(=O)Cc2ccccc2NC(=O)C[C@H](Cc2ccccc2Cl)NC(=O)[C@H](Cc2cccnc2)NC1=O [Compound 133],0.844 µM
8,Cc1ccccc1C[C@@H]1NC(=O)Cc2ccccc2NC(=O)C[C@H](Cc2c(F)c(F)c(F)c(F)c2F)NC(=O)[C@H](Cc2cccnc2)NC1=O [Compound 139],2.37 µM
9,Cc1cccc(C[C@H]2CC(=O)Nc3ccccc3CC(=O)N[C@@H](Cc3ccccc3C)C(=O)N[C@@H](Cc3cccnc3)C(=O)N2)c1 [Compound 135],1.47 µM
10,O=C1C[C@H](Cc2cccc(Cl)c2)NC(=O)[C@H](Cc2cccnc2)NC(=O)[C@H](Cc2cccc(Cl)c2)NC(=O)Cc2ccccc2N1 [Compound 143],2.65 µM
11,O=C1C[C@H](Cc2ccc(Cl)c(Cl)c2)NC(=O)[C@H](Cc2cccnc2)NC(=O)[C@H](Cc2cccc(C(F)(F)F)c2)NC(=O)Cc2ccccc2N1 [Compound 136],1.47 µM
12,O=C1C[C@H](Cc2ccccc2Cl)NC(=O)[C@H](Cc2cccnc2)NC(=O)[C@H](Cc2cccc(Cl)c2)NC(=O)Cc2ccccc2N1 [Compound 132],1.25 µM
13,O=C1C[C@H](Cc2c(F)c(F)c(F)c(F)c2F)NC(=O)[C@H](Cc2cccnc2)NC(=O)[C@H](Cc2cccc(C(F)(F)F)c2)NC(=O)Cc2ccccc2N1 [Compound 131],4.07 µM
14,Cc1ccccc1C[C@@H]1NC(=O)Cc2ccccc2NC(=O)C[C@H](Cc2ccccc2)NC(=O)[C@H](Cc2cccnc2)NC1=O [Compound 218],17.8 µM
15,O=C1C[C@H](Cc2ccc(Br)cc2)NC(=O)[C@H](Cc2cccnc2)NC(=O)[C@H](Cc2cccc(C(F)(F)F)c2)NC(=O)Cc2ccccc2N1 [Compound 137],1.27 µM

# Tested on: not listed separately
# Test: in vitro
# Type: in vitro ADME
# Details: PAMPA
# From the text: We measured the passive membrane diffusion of all 29 macrocycles designed with the two approaches using the parallel artificial membrane permeability assay (PAMPA) (FIGS. 3, 4, and 16). Almost all of the macrocycles were quite membrane permeable: 16 of the 29 had log(Papp)'s greater than −6, and only three were not detected in the acceptor well. Under the same conditions, the small molecule drug propranolol achieved log(Papp) of −5.36 (FIG. 16). As expected, designs with exposed polar groups, particularly side chain hydroxyls and primary amides, had lower permeabilities. Overall, the hydrogen-bond containing designs were more permeable than the torsionally-optimized based designs, likely due to fewer exposed backbone polar groups.
# PAMPA: Stock solutions of each peptide were prepared gravimetrically by dissolving ca. 1-3 mg of peptide in either 100% MeOH or 100% DMSO to produce ca. 1-10 mM peptide solutions. These stock solutions were stored at 4° C. when not in use. Samples for PAMPA experiments and calibration curves were prepared by diluting these stock solutions to produce 1.2 mL of 20 uM peptide in PBS supplemented with either 5% DMSO, or 10% MeOH. […] The concentration of each peptide in the donor and acceptor wells was quantified by LCMS after approximately 19 hours. […]
row,SMILES,Papp at 20 uM
1,CC(C)NCC(O)COc1cccc2ccccc12 (centres unmarked) [propranolol],43.7 nm/s
